Assay results from the NIST ThermoML archive (doi:10.1007/s10765-012-1185-1).

Conditions: Gas

[C-]#[O+] [carbon monoxide]
Conditions	viscosity [mPa·s]
288.72 K, Mass density=0.52 kg/m3	0.01732
288.91 K, Mass density=0.78 kg/m3	0.01733
292.39 K, Mass density=0.52 kg/m3	0.0175
296.53 K, Mass density=0.78 kg/m3	0.0177
296.67 K, Mass density=0.78 kg/m3	0.0177
296.74 K, Mass density=0.52 kg/m3	0.01769
296.81 K, Mass density=0.52 kg/m3	0.0177
297.19 K, Mass density=0.52 kg/m3	0.01771
298.54 K, Mass density=0.52 kg/m3	0.01778
298.58 K, Mass density=0.52 kg/m3	0.01778
299.09 K, Mass density=0.52 kg/m3	0.0178
299.27 K, Mass density=0.52 kg/m3	0.01781
323.27 K, Mass density=0.78 kg/m3	0.0189
323.95 K, Mass density=0.52 kg/m3	0.01894
349.98 K, Mass density=0.78 kg/m3	0.02007
350.09 K, Mass density=0.52 kg/m3	0.02007
377.57 K, Mass density=0.78 kg/m3	0.02123
377.81 K, Mass density=0.52 kg/m3	0.02123
405.3 K, Mass density=0.78 kg/m3	0.02235
405.55 K, Mass density=0.52 kg/m3	0.02236
433.29 K, Mass density=0.78 kg/m3	0.02345
433.45 K, Mass density=0.52 kg/m3	0.02345
461.39 K, Mass density=0.78 kg/m3	0.02452
461.45 K, Mass density=0.52 kg/m3	0.02451
489.68 K, Mass density=0.78 kg/m3	0.02558
489.81 K, Mass density=0.52 kg/m3	0.02557
518.13 K, Mass density=0.78 kg/m3	0.02659
518.44 K, Mass density=0.52 kg/m3	0.0266
542.05 K, Mass density=0.52 kg/m3	0.02744
542.09 K, Mass density=0.78 kg/m3	0.02744
564.73 K, Mass density=0.78 kg/m3	0.02822
593.37 K, Mass density=0.52 kg/m3	0.02919
593.52 K, Mass density=0.78 kg/m3	0.0292
622.5 K, Mass density=0.52 kg/m3	0.03015
622.67 K, Mass density=0.78 kg/m3	0.03016
651.51 K, Mass density=0.78 kg/m3	0.0311
651.68 K, Mass density=0.52 kg/m3	0.0311
680.94 K, Mass density=0.78 kg/m3	0.03203
681.07 K, Mass density=0.52 kg/m3	0.03203

N#N [nitrogen]
Mass density=0.72 kg/m3
Conditions	viscosity [mPa·s]
291.55 K	0.01747
294.73 K	0.01762
296.88 K	0.01771
324 K	0.01894
350.42 K	0.02009
378.04 K	0.02125
405.75 K	0.02237
433.79 K	0.02347
461.81 K	0.02453
490.21 K	0.02559
518.59 K	0.02661
542.47 K	0.02747
565.16 K	0.02825
594.04 K	0.02922
623.22 K	0.0302
652.36 K	0.03114
681.99 K	0.03209
